Test results as given in patent US20090238852A1, “METHODS FOR CONTROLLING INTRACELLULAR CALCIUM LEVELS ASSOCIATED WITH AN ISCHEMIC EVENT” (University of Utah Research Foundation, priority 2008, published 2009).

Key:
NCX = NCX current (INCX) voltage clamp in intact isolated ventricular myocytes; assay type: cell-based, rabbit; details: ODSH 100 μg/ml; approximately −60 mV to +50 mV; n = 5; FIG. 7
Text: The direct effects of ODSH on NCX were further measured by means of voltage clamp studies in intact isolated rabbit ventricular myocytes. […] This finding was initially surprising but is consistent with a previous report that heparin and heparan sulfate disaccharides can stimulate Ca^2+ extrusion by NCX in smooth muscle cell lines (Shinjo et al, 2002). […] We therefore studied the effects of ODSH on Na^+ loading.

[1] = tested on: rabbit ventricular myocytes; assay: [Ca^++]i during paced aerobic metabolism (PH) with the Na^+ channel opener ATX; assay type: cell-based; details: n = 7
Method: In these studies, intracellular calcium concentration [Ca^++]i was measured by flow cytometry. Measurement of isolated mouse and rabbit ventricular myocyte [Ca^2+]i and [Na^+]i by flow cytometry has been described (Zhang et al., J. Cardiovasc. Pharmacol. 51: 443-449 (2008); Li et al., J. Mol. Cell. Cardiol. 33: 2145-2155 (2001)). [Ca^++]i was measured with the Ca^++ sensitive fluorescent probe, Fluo 3-AM (Molecular Probes, Eugene, Oreg.), using a FACScan (Becton-Dickinson, MA). The cells were exposed to 4 μmol/L Fluo-3 AM for 30 min at 37° C. The cells were then separated into aliquots. After 40 min of wash, the cells were exposed to paced metabolic ischemia (MI) for 45 min at 37° C. Metabolic ischemia was accomplished by incubating cells in a glucose-free MKRBB solution (pH 7.40) containing 2 mmol/L sodium cyanide (NaCN) to impair mitochondrial and glycolytic generation of ATP. To reproduce the situation in the beating ischemic heart, during the period of metabolic ischemia, myocytes were placed in a 5-well chamber with equal volumes of myocyte suspensions from the same heart dissociation placed in each well. The chamber was water bathed to maintain temperature at 37° C. and bubbled with 5% CO2 in air to keep myocytes in suspension. […] Approximately 2×10^3 myocytes were analyzed to calculate average emission fluorescence intensity in each sample. […] Only those cells with low fluorescence intensity at 670 nm (PI-negative cells or viable cells) were included in the comparative analysis of [Ca^++]i. The sample [Ca^2+]i values were calculated by Mn^2+ quenching (Sugishita et al, 2001) and [Na^+]i values by comparison with a standard curve of varied [Na^+]i versus Na Green fluorescence. […] Results were expressed as means±SEM. […]
To further examine the role of ODSH as a Na^+ inhibitor, additional experiments were performed in which the Na^+ channel opener amenone toxin II (ATX) was added to medium in a final concentration of 20 nmol/L to open the cardiac myocyte membrane Na^+ channel. […] Intracellular calcium concentration [Ca^++]i was monitored as earlier. […]

[2] = tested on: anti-coagulant activity (USP); details: product of the procedure of U.S. Pat. No. 5,990,097; cited from earlier work

2-O, 3-O desulfated heparin [ODSH]
effect on NCX current (INCX) (NCX): significant stimulation of exchange
[Ca^++]i ([1]; PH + ODSH 100 μg/mL + ATX 20 nmol/L, PH + ATX 529.1 ± 29.3): 412.9 ± 26.7^+ nM
[Ca^++]i ([1]; PH + ODSH 100 μg/mL, no ATX, PH alone 406.8 ± 15.9): 366.4 ± 21.1 nM
anti-coagulant activity [2]: less than 10 USP units/mg
